What was measured:
human IRAK-4 = human IRAK-4 (Homo sapiens (Human), UniProt Q9NWZ3); test: Measurement of human IRAK-4 inhibitory activity (TR-FRET, peptide substrate phosphorylation, 10 μM ATP); assay type: biochemical; details: 1 nM IRAK-4, 10 μM ATP, 23° C., 30 minutes; average values
Method in brief: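 With 1 nM IRAK-4, 0.5 μM biotinylated peptide and 10 μM ATP, compound incubated 30 min at 23 °C in 50 mM HEPES pH 7.2 with Mg2+/Mn2+. Stopped with EDTA plus europium-cryptate anti-phosphopeptide antibody and streptavidin-XL665, 60 min at 23 °C. Activity taken as the 665/620 nm TR-FRET ratio.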

[1] = test system: LPS-stimulated TNFα production in THP-1 cells; test: LPS-stimulated TNFα production inhibition test using human acute monocytic leukemia cell strain THP-1; assay type: cell-based; details: Homo sapiens, THP-1, 4 h, LPS 2.5 ng/mL, average values
Method in brief: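 THP-1 cells were preincubated with compound for 1 h at 37 °C, then stimulated with LPS (2.5 ng/mL final) for 4 h. Supernatant TNFα was quantified by HTRF (620/665 nm ratio) against a calibration curve. IC50 came from a 4-parameter logistic fit, with no-LPS set as 100% and no-compound as 0% suppression.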

Chain of human IRAK-4 (Q9NWZ3 whole entry): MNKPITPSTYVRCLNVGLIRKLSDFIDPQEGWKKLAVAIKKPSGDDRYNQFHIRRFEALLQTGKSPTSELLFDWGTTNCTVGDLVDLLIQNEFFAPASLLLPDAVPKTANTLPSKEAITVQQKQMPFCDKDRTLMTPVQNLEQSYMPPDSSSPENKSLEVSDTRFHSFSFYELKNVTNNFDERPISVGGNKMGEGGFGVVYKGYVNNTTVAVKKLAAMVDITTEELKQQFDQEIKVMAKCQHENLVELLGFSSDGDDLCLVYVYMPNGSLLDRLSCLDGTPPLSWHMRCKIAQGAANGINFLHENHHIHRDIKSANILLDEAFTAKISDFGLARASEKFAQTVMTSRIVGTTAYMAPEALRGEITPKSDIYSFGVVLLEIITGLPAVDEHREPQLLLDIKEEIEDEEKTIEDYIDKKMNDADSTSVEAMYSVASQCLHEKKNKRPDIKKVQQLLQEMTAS

SMILES	IC50 (human IRAK-4)	IC50 [1]
COc1cccc(C(=O)N2CCN([C@H]3C[C@@H](C(=O)Nc4nc5ccc(-c6cnc(CO[C@H]7CCC[C@@H]7O)nc6)cc5s4)C3)[C@@H](C)C2)n1 [b-04-20]	1.12 nM	39 nM
Cc1cccc(C(=O)N2CCN([C@H]3C[C@@H](C(=O)Nc4nc5ccc(-c6cnc(CO[C@H]7CCC[C@@H]7O)nc6)cc5s4)C3)[C@@H](C)C2)n1 [b-04-21]	1.15 nM	33 nM
C[C@H]1CN(C(=O)[C@@H]2CCOC2)CCN1[C@H]1C[C@@H](C(=O)Nc2nc3ccc(-c4cnc(CO[C@H]5CCC[C@@H]5O)nc4)cc3s2)C1 [b-04-22]	1.3 nM	50 nM
C[C@H]1CN(C(=O)[C@H]2CCOC2)CCN1[C@H]1C[C@@H](C(=O)Nc2nc3ccc(-c4cnc(CO[C@H]5CCC[C@@H]5O)nc4)cc3s2)C1 [b-04-23]	1.41 nM	54 nM
CCCOCc1ncc(-c2ccc3nc(NC(=O)[C@H]4C[C@@H](N5CCN(C(=O)c6ccccn6)C[C@@H]5C)C4)sc3c2)cn1 [b-04-24]	0.76 nM	95 nM
CCCOCc1ncc(-c2ccc3nc(NC(=O)[C@H]4C[C@@H](N5CCN(C(=O)C6CCOC6)C[C@@H]5C)C4)sc3c2)cn1 (some centres unmarked) [b-04-25]	0.88 nM	71 nM
CCCOCc1ncc(-c2ccc3nc(NC(=O)[C@H]4C[C@@H](N5CCN(C(=O)c6ccc(C(F)(F)F)cn6)C[C@@H]5C)C4)sc3c2)cn1 [b-04-26]	1.22 nM	86 nM
Cc1noc(C)c1C(=O)N1CCN([C@H]2C[C@@H](C(=O)Nc3nc4ccc(-c5cnc(CO[C@H]6CCC[C@@H]6O)nc5)cc4s3)C2)[C@@H](C)C1 [b-04-27]	1.6 nM	108 nM
C[C@H]1CN(C(=O)c2ccnnc2)CCN1[C@H]1C[C@@H](C(=O)Nc2nc3ccc(-c4cnc(CO[C@H]5CCC[C@@H]5O)nc4)cc3s2)C1 [b-04-28]	1.58 nM	72 nM
Cc1oncc1C(=O)N1CCN([C@H]2C[C@@H](C(=O)Nc3nc4ccc(-c5cnc(CO[C@H]6CCC[C@@H]6O)nc5)cc4s3)C2)[C@@H](C)C1 [b-04-29]	1.6 nM	55 nM
C[C@H]1CN(C(=O)c2cccnc2C(F)(F)F)CCN1[C@H]1C[C@@H](C(=O)Nc2nc3ccc(-c4cnc(CO[C@H]5CCC[C@@H]5O)nc4)cc3s2)C1 [b-04-30]	1.49 nM	62 nM
C[C@H]1CN(C(=O)c2nccs2)CCN1[C@H]1C[C@@H](C(=O)Nc2nc3ccc(-c4cnc(CO[C@H]5CCC[C@@H]5O)nc4)cc3s2)C1 [b-04-31]	1.73 nM	55 nM
Cc1nc(C)c(C(=O)N2CCN([C@H]3C[C@@H](C(=O)Nc4nc5ccc(-c6cnc(CO[C@H]7CCC[C@@H]7O)nc6)cc5s4)C3)[C@@H](C)C2)s1 [b-04-32]	1.57 nM	50 nM
C[C@H]1CN(C(=O)c2ccno2)CCN1[C@H]1C[C@@H](C(=O)Nc2nc3ccc(-c4cnc(CO[C@H]5CCC[C@@H]5O)nc4)cc3s2)C1 [b-04-33]	1.99 nM	55 nM
C[C@H]1CN(C(=O)c2cnccn2)CCN1[C@H]1C[C@@H](C(=O)Nc2nc3ccc(-c4cnc(CO[C@H]5CCC[C@@H]5O)nc4)cc3s2)C1 [b-04-34]	1.65 nM	66 nM
C[C@H]1CN(C(=O)c2ccnc(C(F)(F)F)c2)CCN1[C@H]1C[C@@H](C(=O)Nc2nc3ccc(-c4cnc(CO[C@H]5CCC[C@@H]5O)nc4)cc3s2)C1 [b-04-35]	2.08 nM	37 nM
Cc1nc(C(=O)N2CCN([C@H]3C[C@@H](C(=O)Nc4nc5ccc(-c6cnc(CO[C@H]7CCC[C@@H]7O)nc6)cc5s4)C3)[C@@H](C)C2)co1 [b-04-36]	0.9 nM	48 nM
C[C@H]1CN(C(=O)c2ccc(Cl)cn2)CCN1[C@H]1C[C@@H](C(=O)Nc2nc3ccc(-c4cnc(CO[C@H]5CCC[C@@H]5O)nc4)cc3s2)C1 [b-04-37]	0.81 nM	35 nM
C[C@H]1CN(C(=O)c2cncnc2)CCN1[C@H]1C[C@@H](C(=O)Nc2nc3ccc(-c4cnc(CO[C@H]5CCC[C@@H]5O)nc4)cc3s2)C1 [b-04-38]	0.85 nM	87 nM
C[C@H]1CN(C(=O)c2ccon2)CCN1[C@H]1C[C@@H](C(=O)Nc2nc3ccc(-c4cnc(CO[C@H]5CCC[C@@H]5O)nc4)cc3s2)C1 [b-04-39]	0.66 nM	44 nM
Cc1cc(C(=O)N2CCN([C@H]3C[C@@H](C(=O)Nc4nc5ccc(-c6cnc(CO[C@H]7CCC[C@@H]7O)nc6)cc5s4)C3)[C@@H](C)C2)cc(C)n1 [b-04-40]	0.89 nM	25 nM
CCCOCc1ncc(-c2ccc3nc(NC(=O)[C@H]4C[C@@H](N5CCN(C(=O)c6cc(F)ccn6)C[C@@H]5C)C4)sc3c2)cn1 [b-04-41]	0.69 nM	76 nM

SMILES	IC50 (human IRAK-4)	IC50 [1]
CCCOCc1ncc(-c2ccc3nc(NC(=O)[C@H]4C[C@@H](N5CCN(C(=O)c6cc(C)ccn6)C[C@@H]5C)C4)sc3c2)cn1 [b-04-42]	0.49 nM	64 nM
CCCOCc1ncc(-c2ccc3nc(NC(=O)[C@H]4C[C@@H](N5CCN(C(=O)c6ccncc6Cl)C[C@@H]5C)C4)sc3c2)cn1 [b-04-43]	0.65 nM	96 nM
Cc1ccc(C(=O)N2CCN([C@H]3C[C@@H](C(=O)Nc4nc5ccc(-c6cnc(CO[C@H]7CCC[C@@H]7O)nc6)cc5s4)C3)[C@@H](C)C2)cn1 [b-04-44]	0.46 nM	23 nM
COc1ccc(C(=O)N2CCN([C@H]3C[C@@H](C(=O)Nc4nc5ccc(-c6cnc(CO[C@H]7CCC[C@@H]7O)nc6)cc5s4)C3)[C@@H](C)C2)cn1 [b-04-45]	0.66 nM	15 nM
C[C@H]1CN(C(=O)c2cc(F)ccn2)CCN1[C@H]1C[C@@H](C(=O)Nc2nc3ccc(-c4cnc(CO[C@H]5CCC[C@@H]5O)nc4)cc3s2)C1 [b-04-46]	0.58 nM	22 nM
Cc1ccnc(C(=O)N2CCN([C@H]3C[C@@H](C(=O)Nc4nc5ccc(-c6cnc(CO[C@H]7CCC[C@@H]7O)nc6)cc5s4)C3)[C@@H](C)C2)c1 [b-04-47]	0.54 nM	26 nM
C[C@H]1CN(C(=O)c2ccncc2Cl)CCN1[C@H]1C[C@@H](C(=O)Nc2nc3ccc(-c4cnc(CO[C@H]5CCC[C@@H]5O)nc4)cc3s2)C1 [b-04-48]	0.52 nM	35 nM
CC(=O)N1CCN([C@H]2C[C@@H](C(=O)Nc3nc4ccc(-c5cnc(CO[C@H]6CCC[C@@H]6O)nc5)cc4s3)C2)[C@@H](C)C1 [b-05-01, (1R,3s)-3-((S)-4-Acetyl-2-methylpiperazin-1-yl)-N-(6-(2-((((1S,2S)-2-hydroxycyclopentyl)oxy)methyl)pyrimidin-5-yl)benzo[d]thiazol-2-yl)cyclobutane-1-carboxamide]	1.9 nM	48 nM
C[C@H]1CN(C(=O)C2CC2)CCN1[C@H]1C[C@@H](C(=O)Nc2nc3ccc(-c4cnc(CO[C@H]5CCC[C@@H]5O)nc4)cc3s2)C1 [b-05-02]	2.47 nM	56 nM
COCC(=O)N1CCN([C@H]2C[C@@H](C(=O)Nc3nc4ccc(-c5cnc(CO[C@H]6CCC[C@@H]6O)nc5)cc4s3)C2)[C@@H](C)C1 [b-05-03]	1.81 nM	50 nM
C[C@H]1CN(C(=O)c2ccccc2)CCN1[C@H]1C[C@@H](C(=O)Nc2nc3ccc(-c4cnc(CO[C@H]5CCC[C@@H]5O)nc4)cc3s2)C1 [b-05-04]	4.38 nM	24 nM
CCC(=O)N1CCN([C@H]2C[C@@H](C(=O)Nc3nc4ccc(-c5cnc(CO[C@H]6CCC[C@@H]6O)nc5)cc4s3)C2)[C@@H](C)C1 [b-05-05]	1.95 nM	50 nM
CC(C)C(=O)N1CCN([C@H]2C[C@@H](C(=O)Nc3nc4ccc(-c5cnc(CO[C@H]6CCC[C@@H]6O)nc5)cc4s3)C2)[C@@H](C)C1 [b-05-06]	2.25 nM	46 nM
C[C@H]1CN(C(=O)C2CCC2)CCN1[C@H]1C[C@@H](C(=O)Nc2nc3ccc(-c4cnc(CO[C@H]5CCC[C@@H]5O)nc4)cc3s2)C1 [b-05-07]	2.51 nM	44 nM
C[C@H]1CN(C(=O)N2CCC2)CCN1[C@H]1C[C@@H](C(=O)Nc2nc3ccc(-c4cnc(CO[C@H]5CCC[C@@H]5O)nc4)cc3s2)C1 [b-05-09]	2.13 nM	44 nM
C[C@H]1CN(C(=O)Nc2ccccc2)CCN1[C@H]1C[C@@H](C(=O)Nc2nc3ccc(-c4cnc(CO[C@H]5CCC[C@@H]5O)nc4)cc3s2)C1 [b-06-02]	4.19 nM	46 nM
C[C@H]1CN(CC(F)(F)F)CCN1C1CC(C(=O)Nc2nc3ccc(-c4cnc(CO[C@H]5CCC[C@@H]5O)nc4)cc3s2)C1 (stereo partly drawn) [b-07-01, N-(6-(2-((((1S,2S)-2-Hydroxycyclopentyl)oxy)methyl)pyrimidin-5-yl)benzo[d]thiazol-2-yl)-3-((S)-2-methyl-4-(2,2,2-trifluoroethyl)piperazin-1-yl)cyclobutane-1-carboxamide]	2.34 nM	58 nM
C[C@H]1CN(C2CC2)CCN1C1CC(C(=O)Nc2nc3ccc(-c4cnc(CO[C@H]5CCC[C@@H]5O)nc4)cc3s2)C1 (stereo partly drawn) [b-08-01, 3-((S)-4-Cyclopropyl-2-methylpiperazin-1-yl)-N-(6-(2-((((1S,2S)-2-hydroxycyclopentyl)oxy)methyl)pyrimidin-5-yl)benzo[d]thiazol-2-yl)cyclobutane-1-carboxamide]	1.97 nM	56 nM
COc1c(-c2cnc(CO[C@H]3CCC[C@@H]3O)nc2)ccc2nc(NC(=O)[C@@H]3C[C@H]3C)sc12 [c-02-01]	3.7 nM	110 nM
COc1c(-c2cnc(CO[C@H]3CCC[C@@H]3O)nc2)ccc2nc(NC(=O)[C@H]3C[C@H]3F)sc12 [c-02-04]	3.35 nM	261 nM
COc1c(-c2cnc(CO[C@H]3CCC[C@@H]3O)nc2)ccc2nc(NC(=O)[C@H]3C[C@@](C)(O)C3)sc12 [c-02-05]	4.64 nM	175 nM

Source: patent US20240025893A1, “PYRIMIDINE-AND NITROGEN-CONTAINING BICYCLIC COMPOUND” (Asahi Kasei Pharma Corporation, priority 2020, published 2024)
